Seven molecules from patent US11554123B2, “Compositions and methods for reactivating latent HIV-1 infections” (Saint Joseph's University, priority 2017, dated 2023) can be followed below.

The term viability denotes the share of living cells, or the viability signal relative to a control.

Holding throughout (assay type): cell-based
The test system of data set [1] is latent HIV-1 in JLat10.6 cell line model of T-cell latency. To be noted: for percentage of GFP+ live cells: 10 μM benzodiazepine used independently, 48 h, FIG. 1A, DMSO background 2.8%; for activation compared with the other tested benzodiazepines (in words): in the presence or absence of SAHA; for maximal effect in dose dependent reactivation (in words): compared with Alprazolam.

The subject of a further data set is HIV-1 Gag mRNA. Description: HIV-1 Gag mRNA (RTqPCR) in ex vivo treated PBMCs from HIV-1 patients. To be noted: 10 μm Alprazolam, 24 h. As to the method:
To evaluate the ability of Alprazolam to reactivate latent cells from patients we obtained PBMCs from two HIV-1 patients who had been suppressed on therapy for greater than 6 months. 10×10^6 PBMCs were divided between three conditions: DMSO control, 50 μM Ro5-3335 and 10 μm Alprazolam. PBMCs were cultured in RPMI with 10% FBS and the given drugs for twenty-four hours. RNA was extracted from the cells and used for RTqPCR to detect HIV-1 Gag mRNA. RNA was extracted using Trizol reagent (Invitrogen) following manufacturer's protocol. Following reverse transcription, the samples were diluted 1:50, and 2.5 microliters were used for quantitative PCR in a BioRad CFX384 qPCR machine. All mRNA analyses were normalized to GAPDH. Nucleic acid amplification was tracked by SYBR Green method.
In order to evaluate the ability of Alprazolam to reactivate latent cells from patients, PBMCs were obtained from two HIV-1 patients who had been suppressed on therapy for greater than 6 months. 10×10^6 PBMCs were divided between three conditions: DMSO control, 50 μM Ro5-3335 and 10 μm Alprazolam. PBMCs were cultured in RPMI with 10% FBS and the given drugs for twenty-four hours. RNA was extracted from the cells and used for RTqPCR to detected HIV-1 Gag mRNA (FIG. 6). […] Treatment with Alprazolam produced detectable reactivation of HIV-1 transcripts.

Another data set concerns CBP/P300. Description: ChIP for CBP/P300 at integrated HIV-1 LTR in TZMbl cells. On the procedure:
(§1) TZMbl cells were cultured with benzodiazepines for 48 hours before chromatin immunoprecipitation analysis. Following treatment, cells were processed for chromatin immunoprecipitation using the Pierce Agarose ChIP Kit (Fisher Scientific) using commercially available antibodies against histone H3 lysine 9 acetylation, STATS, and CBP/P300. Degree of occupancy at the integrated HIV-1 LTR was determined by qPCR using HIV-1 LTR specific primers run on a BioRad CFX384 qPCR machine using Sybr Green methodology.
Therefore, ChIP was performed for STATS to determine if benzodiazepine treatment might increase the recruitment of STATS above SAHA treatment (FIG. 3C). All three benzodiazepines were capable of driving recruitment of STATS to the promoter, and further recruitment was seen when used in combination with SAHA. STATS is capable of recruiting the histone acetyl transferase CBP/P300 that acetylates histone 3 at lysine 27, a residue that is not affected by SAHA. […] Addition of both Ro5-3335 and Alprazolam induced recruitment of CBP/P300 to the HIV-1 LTR (by 3 and 7 fold respectively).

The subject of data set [2] is H3K9ac at the integrated HIV-1 long terminal repeat (LTR). Description: ChIP for H3K9ac at integrated HIV-1 LTR in TZMbl cells. To be noted: 48 h; for H3K9ac at the HIV-1 LTR versus SAHA alone (in words): 50 μM Ro5-3335, 10 μM Alprazolam or 10 μM Clonazepam with 5 μM SAHA. As to the method: as §1
In order to test the changes driven by these compounds, chromatin immunoprecipitation (ChIP) assays were performed to examine the presence of various proteins and modifications at the integrated HIV-1 long terminal repeat (LTR). TZMbl cells were treated for 48 hours with 50 μM Ro5-3335, 10 μM Alprazolam and 10 μM Clonazepam with or without 5 μM SAHA Acetylation of histone 3 at lysine 9 (H3K9ac) was first examined (FIG. 3B). […] None of the benzodiazepines were able to alter H3K9ac when used alone.

Another data set concerns the target T1, HIV-1 Tat (Human immunodeficiency virus type 1 group M subtype B, UniProt P04608).
T1 construct: expressed in transfected cells; host or cells: TZMbl cells
To be noted: TZMbl cells transfected with Tat plasmid, 24 h treatment, FIG. 3E.

The next data set has as its system IL-17 promoter. The experiment in a line: IL-17 promoter luciferase reporter assay in 293T cells. In general terms: Reporter assays use an easily measured gene product as a stand-in for the process of interest.
The test system of data set [3] is primary peripheral blood mononuclear cells (PBMCs) from healthy donors. The experiment in a line: T cell activation in primary PBMCs (CD69 flow cytometry). To be noted: 10 μM Alprazolam in combination with 0.5 μM SAHA, 24 h. As to the method: To investigate whether alprazolam is specifically activating HIV-1 or having general effect on T cell activation (CD4 and CD8), primary PBMC from two healthy donors were treated with 10 μM, 50 μM Alprazolam or Ro5-3335 respectively alone or in combination with 0.5 μM SAHA. Twenty-four hours after treatment, cells were stained using Zombie yellow live and dead staining and then stained for CD3, CD8, CD4, CD69, and then fixed for analysis by flow cytometry. AntiCD3/CD28 and PHA were included as a positive control. Samples were analyzed on a CYTEK® DxP12 flow cytometer followed by analysis using FLOWJO® v10 software (Treestar)
In order to investigate whether alprazolam was specifically activating HIV-1 or having a general effect on T cell activation (CD4 and CD8), primary peripheral blood mononuclear cells (PBMCs) from two healthy donors were treated with 10 μM Alprazolam or 50 μM Ro5-3335, both alone or in combination with 0.5 μM SAHA. Twenty-four hours after treatment, cells were stained using Zombie yellow live and dead staining, then stained for CD3, CD8, CD4, CD69, and then fixed for analysis by flow cytometry. AntiCD3/CD28 and PHA were included as a positive control (FIG. 2B).
A general note: In flow cytometry, cells or beads pass a laser one at a time.

Data set [4] relates to acetylated histone 3 at lysine 9 (H3K9). The experiment in a line: NUCLEO-M imaging of acetylated H3K9 in isolated nuclei. To be noted: SAHA alone, FIG. 3A. As to the method: Transcriptionally competent nuclei were isolated from TZM-bl cells by chemical lysis and stored following manufacturer's recommendations (Nuclei Isolation Kit: Nuclei EZ Prep, Sigma-Aldrich, Nuc-101). Nuclei were stained for 1 hour on ice in 5% FBS/PBS solution containing primary antibodies. Nuclei were washed twice in 5% FBS/PBS and stained for 1 hour on ice with appropriate secondary antibodies conjugated with fluorescent dyes. Nuclei were finally washed twice in 5% FBS/PBS and resuspended in the storage buffer provided by the kit (Nuclei Isolation Kit: Nuclei EZ Prep, Sigma-Aldrich, Nuc-101).
Isolated nuclei and TZM-bl cells seeded on a chambered coverglass (NUNC® LAB-TEK® Chambered Coverglass, Thermo Fisher) were imaged with a Zeiss AXIOVERT® microscope with a Zeiss alpha PLAN-FLUAR® 100×, 1.45 N.A., oil objective and a spinning disk confocal scan head (Yokogawa CSU-X1). A 488 nm laser source with 488-25 nm, 617-73 nm and 692-40 nm emission filters were used for the illumination of Alexa Fluor® 488 dye (Thermo Fisher) or SYTO® RNA SELECT® Green Fluorescent cell Stain (Thermo Fisher), and PerCP-Cy5.5 (BD Biosciences) respectively. A 561 nm laser source with 568-25 nm emission filters was used for illumination of ALEXA FLUOR® 555 dye (Thermo Fisher). Digital images were captured sequentially by a high-speed EM-CCD camera with 100 ms exposure time (Photometrics EVOLVE® 512). […]

The next data set has as its system JLat10.6 cells. The experiment in a line: JLat10.6 cell viability (live/dead staining). To be noted: 48 h, DMSO control 97%. As to the method: […] Forty-eight hours after treatment, cells were stained for live dead staining using Live/Dead Red stain (BD Biosciences). Viability was determined by fluorescent detection of the live dead stain using a CYTEK® DxP12 flow cytometer. Comparison to untreated cells was used to determine degree of cell viability.
To examine safety of the treatment and effect on T-cell activation, Jlat10.6 cells were treated with different benzodiazepines with and without SAHA. Forty-eight hours after incubation, cells were harvested and stained with red live/dead staining according to the manufacturer protocol (LIVE/DEAD® Fixable Red Dead Cell Stain Kit, ThermoFisher Scientific) (FIG. 2A). Trichostatin A, used as a positive control induced toxicity (68% viable).

Entries after “also recorded” stand apart in the source; their conditions may differ. Read-outs that look alike come from different tables or passages of the source.

T1 sequence (P04608 whole entry): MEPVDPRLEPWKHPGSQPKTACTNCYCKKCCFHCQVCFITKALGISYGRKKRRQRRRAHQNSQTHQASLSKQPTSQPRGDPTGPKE

For `Cc1nnc2n1-c1ccc(Cl)cc1C(c1ccccc1)=NC2` [Alprazolam], the “percentage of GFP+ live cells” value in data set [1] came out at 20.3%. Also, in data set [1] (alone, at 10 μM, FIG. 1B, DMSO control 2.8%), the “GFP+ cells, dose dependent reactivation” value is recorded as 25.5%. The “activation compared with the other tested benzodiazepines (in words)” value in [1] is listed as “maximum activation”. Further, the “increase in HIV-1 Gag RNA” value is listed as 4.6 fold in the data set on HIV-1 Gag mRNA (Patient 1, versus DMSO control) and 3.3 fold with HIV-1 Gag mRNA (Patient 2, versus DMSO control). Further, the “recruitment of CBP/P300 to the HIV-1 LTR” value with CBP/P300 (addition of 50 μM Ro5-3335 or 10 μM Alprazolam, 48 h, FIG. 3D) is 7 fold. Further, the “H3K9ac at the HIV-1 LTR versus SAHA alone (in words)” value in [2] is “further increased acetylation over SAHA alone”. Moreover, the “luciferase expression driven by Tat (in words)” value at HIV-1 Tat was “additional activation beyond what was seen with Tat alone”. Also, the “IL-17 promoter luciferase activity (in words)” value in the data set with IL-17 promoter (RUNX1 over expression) was “increased luciferase activity”; in the data set on IL-17 promoter (in the presence of SAHA), “no effect on luciferase activity”. Further, in the data set on IL-17 promoter (absence of SAHA or RUNX1 over expression, lowest dose 0.1 μM), the “IL-17 promoter activity (in words)” value was “statistically significant suppression”. In addition, the “T cell activation (in words)” value in data set [3] is given as “did not induce any significant T cell activation”; in data set [3] (listed as alprazolam), “did not induce significant T-cell activation”.
Consider `O=C1CN=C(c2ccccc2Cl)c2cc([N+](=O)[O-])ccc2N1` [Clonazepam], for which the “maximal effect in dose dependent reactivation (in words)” value in data set [1] (alone, FIG. 1B) was “smaller maximal effect, but at lower doses”. In [2], the “H3K9ac at the HIV-1 LTR versus SAHA alone (in words)” value is “potentiation was not seen”.
In the case of `O=C(O)C1N=C(c2ccccc2)c2cc(Cl)ccc2NC1=O` (stereo not shown) [Clorazepate], in [1] (alone, FIG. 1B), the “maximal effect in dose dependent reactivation (in words)” value is given as “smaller maximal effect, but at lower doses”. Also, the “luciferase expression driven by Tat (in words)” value on HIV-1 Tat is “additional activation beyond what was seen with Tat alone”.
For the molecule `CN1C(=O)CN=C(c2ccccc2)c2cc(Cl)ccc21` [Diazepam], in [1], the “percentage of GFP+ live cells” value worked out at 12.4% and the “activation compared with the other tested benzodiazepines (in words)” value is “maximum activation”.
Take `CN1C(=O)CN=C(c2ccccc2F)c2cc([N+](=O)[O-])ccc21` [Flunitrazepam]: in data set [1], the “percentage of GFP+ live cells” value is given as 9.1%.
`O=C(CCCCCCC(=O)Nc1ccccc1)NO` [SAHA, N-hydroxy-N′-phenyloctanediamide]: the “acetylated H3K9 in the nuclei (in words)” value in [4] is recorded as “increase in acetylated H3K9; also recorded: increase in acetylated histone 3 at lysine 9”. For the same molecule, the “GFP+ cells” value is 5.9% in data set [1] (0.5 uM SAHA alone, FIG. 1B) and 6.2% in data set [1] (SAHA alone, FIG. 1A screen, DMSO 2.8%). The viability in the data set on JLat10.6 cells (0.5 μM SAHA) came to 94.6%. Besides, the “recruitment of CBP/P300 (in words)” value in the data set on CBP/P300 (SAHA alone) was “no increase in recruitment”. Besides, the “occupancy of H3K9ac at the promoter (in words)” value in [2] (5 μM SAHA alone, compared to DMSO control) is “increased the occupancy of H3K9ac”. Moreover, the “IL-17 driven luciferase expression (in words)” value in the data set on IL-17 promoter (SAHA treatment compared to control) was “increased IL-17 driven luciferase expression”.
Regarding `CC(/C=C/C(=O)NO)=C\[C@@H](C)C(=O)c1ccc(N(C)C)cc1` [Trichostatin A, [R-(E,E)]-7-[4-(Dimethylamino)phenyl]-N-hydroxy-4,6-dimethyl-7-oxo-2,4-heptadienamide], in the data set with JLat10.6 cells (positive control), the viable cells came to 68%.
